Assay results: patent US9346799B2, “Useful combinations of monobactam antibiotics with beta-lactamase inhibitors” (Basilea Pharmaceutica AG, priority 2005, dated 2016)

Key:
Test in all cases: MIC by broth microdilution (NCCLS M7-A5)
[1] = tested on: Klebsiella pneumoniae CF104
Serratia marcescens S6 = tested on: Serratia marcescens S6
Enterobacter cloacae P99 = tested on: Enterobacter cloacae P99
Acinetobacter sp. J2 = conditions: Acinetobacter baumannii J2
[2] = tested on: Pseudomonas aeruginosa MK1184
[3] = tested on: Stenotrophomonas malthophilia 1AC736; conditions: Stenotrophomonas maltophilia 1AC736
[4] = tested on: Pseudomonas aeruginosa 1973E
[5] = + 102 + clavulanate, 4 mg/L each
[6] = + 324 + clavulanate, 4 mg/L each
[7] = + 206 + clavulanate, 4 mg/L each
[8] = + 315 + clavulanate, 4 mg/L each

## NC(=O)OCC1C(NC(=O)C(=NOCc2cc(=O)c(O)cn2O)c2csc(N)n2)C(=O)N1OCC(=O)O (stereo not shown) [Compound 41]
[1]; [5]
  MIC of antibiotic: 0.5 µg/mL
[1]; antibiotic alone
  MIC of antibiotic: >32 µg/mL
Serratia marcescens S6; [5]
  MIC of antibiotic: 0.5 µg/mL
Serratia marcescens S6; antibiotic alone
  MIC of antibiotic: 1 µg/mL
Enterobacter cloacae P99; [5]
  MIC of antibiotic: 16 µg/mL
Enterobacter cloacae P99; antibiotic alone
  MIC of antibiotic: >32 µg/mL
Acinetobacter sp. J2; [5]
  MIC of antibiotic: 16 µg/mL
Acinetobacter sp. J2; antibiotic alone
  MIC of antibiotic: 16 µg/mL
[2]; [5]
  MIC of antibiotic: 4 µg/mL
[2]; antibiotic alone
  MIC of antibiotic: 4 µg/mL
[3]; [5]
  MIC of antibiotic: 2 µg/mL
[3]; antibiotic alone
  MIC of antibiotic: 1 µg/mL
[4]; [5]
  MIC of antibiotic: 4 µg/mL
[4]; antibiotic alone
  MIC of antibiotic: 4 µg/mL

## CC1(C)C(NC(=O)C(=NOCc2cc(=O)c(O)cn2O)c2csc(N)n2)C(=O)N1OCC(=O)O (stereo not shown) [Compound 33]
[1]; [5]
  MIC of antibiotic: 2 µg/mL
[1]; [6]
  MIC of antibiotic: 0.5 µg/mL
[1]; antibiotic alone
  MIC of antibiotic: 0.5 µg/mL
Serratia marcescens S6; [5]
  MIC of antibiotic: 0.5 µg/mL
Serratia marcescens S6; [6]
  MIC of antibiotic: 0.25 µg/mL
Serratia marcescens S6; antibiotic alone
  MIC of antibiotic: 0.25 µg/mL
Enterobacter cloacae P99; [5]
  MIC of antibiotic: 32 µg/mL
Enterobacter cloacae P99; [6]
  MIC of antibiotic: 4 µg/mL
Enterobacter cloacae P99; antibiotic alone
  MIC of antibiotic: 16 µg/mL
Acinetobacter sp. J2; [5]
  MIC of antibiotic: >32 µg/mL
Acinetobacter sp. J2; [6]
  MIC of antibiotic: 16 µg/mL
Acinetobacter sp. J2; antibiotic alone
  MIC of antibiotic: 8 µg/mL
[2]; [5]
  MIC of antibiotic: 32 µg/mL
[2]; [6]
  MIC of antibiotic: 16 µg/mL
[2]; antibiotic alone
  MIC of antibiotic: 32 µg/mL
[3]; [5]
  MIC of antibiotic: 2 µg/mL
[3]; [6]
  MIC of antibiotic: 2 µg/mL
[3]; antibiotic alone
  MIC of antibiotic: 2 µg/mL
[4]; [5]
  MIC of antibiotic: 32 µg/mL
[4]; [6]
  MIC of antibiotic: 16 µg/mL
[4]; antibiotic alone
  MIC of antibiotic: 16 µg/mL

## C[C@H]1[C@H](NC(=O)/C(=N\OCc2cc(=O)c(O)cn2C)c2csc(N)n2)C(=O)N1S(=O)(=O)O [Compound 6, (3S,4S)-3-{(2Z)-2-(2-amino(1,3-thiazol-4-yl))-3-[(5-hydroxy-1-methyl-4-oxo(2-hydropyridyl))methoxy]-3-azaprop-2-enoylamino}-4-methyl-2-oxoazetidinesulfonic acid]
[1]; [7]
  MIC of antibiotic: 0.5 µg/mL
[1]; [8]
  MIC of antibiotic: 0.5 µg/mL
Serratia marcescens S6; [7]
  MIC of antibiotic: 4 µg/mL
Serratia marcescens S6; [8]
  MIC of antibiotic: 4 µg/mL
Enterobacter cloacae P99; [7]
  MIC of antibiotic: 16 µg/mL
Enterobacter cloacae P99; [8]
  MIC of antibiotic: 4 µg/mL
Acinetobacter sp. J2; [7]
  MIC of antibiotic: 32 µg/mL
Acinetobacter sp. J2; [8]
  MIC of antibiotic: >32 µg/mL
[2]; [7]
  MIC of antibiotic: >32 µg/mL
[2]; [8]
  MIC of antibiotic: >32 µg/mL
[3]; [7]
  MIC of antibiotic: 4 µg/mL
[3]; [8]
  MIC of antibiotic: 2 µg/mL
[4]; [7]
  MIC of antibiotic: >32 µg/mL
[4]; [8]
  MIC of antibiotic: >32 µg/mL

## NC(=O)OCC1C(NC(=O)C(=NOCc2cc(=O)c(O)cn2O)c2csc(N)n2)C(=O)N1OS(=O)(=O)O (stereo not shown) [Compound 25]
[1]; [5]
  MIC of antibiotic: 0.5 µg/mL
[1]; [6]
  MIC of antibiotic: 0.5 µg/mL
[1]; antibiotic alone
  MIC of antibiotic: >32 µg/mL
Serratia marcescens S6; [5]
  MIC of antibiotic: 1 µg/mL
Serratia marcescens S6; [6]
  MIC of antibiotic: 1 µg/mL
Serratia marcescens S6; antibiotic alone
  MIC of antibiotic: 1 µg/mL
Enterobacter cloacae P99; [5]
  MIC of antibiotic: 8 µg/mL
Enterobacter cloacae P99; [6]
  MIC of antibiotic: 4 µg/mL
Enterobacter cloacae P99; antibiotic alone
  MIC of antibiotic: >32 µg/mL
Acinetobacter sp. J2; [5]
  MIC of antibiotic: 16 µg/mL
Acinetobacter sp. J2; [6]
  MIC of antibiotic: >32 µg/mL
Acinetobacter sp. J2; antibiotic alone
  MIC of antibiotic: >32 µg/mL
[2]; [5]
  MIC of antibiotic: 4 µg/mL
[2]; [6]
  MIC of antibiotic: 8 µg/mL
[2]; antibiotic alone
  MIC of antibiotic: >32 µg/mL
[3]; [5]
  MIC of antibiotic: 1 µg/mL
[3]; [6]
  MIC of antibiotic: 1 µg/mL
[3]; antibiotic alone
  MIC of antibiotic: 4 µg/mL
[4]; [5]
  MIC of antibiotic: 4 µg/mL
[4]; [6]
  MIC of antibiotic: 8 µg/mL
[4]; antibiotic alone
  MIC of antibiotic: 16 µg/mL

## CC1(C)C(NC(=O)C(=NOCc2cc(=O)c(O)cn2O)c2nsc(N)n2)C(=O)N1OS(=O)(=O)O (stereo not shown) [Compound 32]
[1]; [5]
  MIC of antibiotic: >32 µg/mL
[1]; [6]
  MIC of antibiotic: 1 µg/mL
[1]; antibiotic alone
  MIC of antibiotic: 2 µg/mL
Serratia marcescens S6; [5]
  MIC of antibiotic: 0.5 µg/mL
Serratia marcescens S6; [6]
  MIC of antibiotic: 0.25 µg/mL
Enterobacter cloacae P99; [5]
  MIC of antibiotic: 32 µg/mL
Enterobacter cloacae P99; [6]
  MIC of antibiotic: 8 µg/mL
Acinetobacter sp. J2; [5]
  MIC of antibiotic: >32 µg/mL
Acinetobacter sp. J2; [6]
  MIC of antibiotic: 4 µg/mL
[2]; [5]
  MIC of antibiotic: 4 µg/mL
[2]; [6]
  MIC of antibiotic: 4 µg/mL
[3]; [5]
  MIC of antibiotic: 0.5 µg/mL
[3]; [6]
  MIC of antibiotic: 0.5 µg/mL
[4]; [5]
  MIC of antibiotic: 16 µg/mL
[4]; [6]
  MIC of antibiotic: 8 µg/mL
